This test deals with T1, wt human LRRK2 (Homo sapiens, UniProt Q5S007).
T1 construct: wt human LRRK2, catalytic site, catalytic site (ThermoFisher/USA); purchased ThermoFisher
In words: TR-FRET LanthaScreen Tb Kinase Activity Assay, inhibition of LRRK2 kinase. Format: biochemical. As to conditions: 2 nM wt human LRRK2, 400 nM fluorescein-ERM (LRRKtide) peptide, 38 µM ATP, 15 min pre-incubation, 120 min at room temperature. How it is done:
In Table 2, activity is provided as the following: “+++”=IC50 less than 50 nM; “++”=IC50 between 50 nM and 200 nM; “+”=IC50> or =200 nM.
The compounds listed in Table 2 were tested for their inhibitory effect on LRRK2 kinase according to the following procedures.
The protocol for basic TR-FRET LanthaScreen Tb Kinase Activity Assay inhibitor studies were as follows. LanthaScreen Kinase Activity Assays (ThermoFisher/USA) to evaluate inhibitors were performed by addition of 100 nl of test compound in corresponding DMSO dilutions/5 μl of kinase/fluorescein-ERM(LRRKtide) peptide mixture, Compound & kinase were pre-incubated for 15 minutes, then 5 μl of ATP into 384 well small volume plates. After incubation for 120 minutes at room temperature, the detection reagents containing Tb-anti-pLRRKtide antibody were added to monitor phosphorylation level of peptide. Then, after 60 min minutes incubation at room temperature plates were read in Envision. Data analysis of emission ratios was according to LanthaScreen Tb Kinase Activity Assay protocol.
Kinase and assay components were adjusted to final concentrations according to the kit protocol. For LRRK2: 2 nM wt human LRRK2, catalytic site, catalytic site (ThermoFisher/USA), 400 nM peptide, 38 µM ATP in 1× Kinase Buffer A.
Basic protocol for TR-FRET LanthaScreen Tb Kinase Activity Assay inhibitor studies involved two steps:
Enzymatic step: Addition of […] of test compound in corresponding DMSO dilutions, 5 μL of kinase/substrate mixture, 5 μL of ATP into 384 well small volume plates. Incubation for 120 minutes at room temperature.
Detection step: Addition of 10 μL EDTA & antibody, read plate after 60 minutes. Data analysis of emission ratios according to KinEASE assay protocol.
Kinase and assay components were adjusted to final concentrations according to the kit protocol.

pIC50: −log10 of the molar value. Where only a bound is given, the exact number is not on record here.

T1 sequence (Q5S007 970-2527 limits assumed): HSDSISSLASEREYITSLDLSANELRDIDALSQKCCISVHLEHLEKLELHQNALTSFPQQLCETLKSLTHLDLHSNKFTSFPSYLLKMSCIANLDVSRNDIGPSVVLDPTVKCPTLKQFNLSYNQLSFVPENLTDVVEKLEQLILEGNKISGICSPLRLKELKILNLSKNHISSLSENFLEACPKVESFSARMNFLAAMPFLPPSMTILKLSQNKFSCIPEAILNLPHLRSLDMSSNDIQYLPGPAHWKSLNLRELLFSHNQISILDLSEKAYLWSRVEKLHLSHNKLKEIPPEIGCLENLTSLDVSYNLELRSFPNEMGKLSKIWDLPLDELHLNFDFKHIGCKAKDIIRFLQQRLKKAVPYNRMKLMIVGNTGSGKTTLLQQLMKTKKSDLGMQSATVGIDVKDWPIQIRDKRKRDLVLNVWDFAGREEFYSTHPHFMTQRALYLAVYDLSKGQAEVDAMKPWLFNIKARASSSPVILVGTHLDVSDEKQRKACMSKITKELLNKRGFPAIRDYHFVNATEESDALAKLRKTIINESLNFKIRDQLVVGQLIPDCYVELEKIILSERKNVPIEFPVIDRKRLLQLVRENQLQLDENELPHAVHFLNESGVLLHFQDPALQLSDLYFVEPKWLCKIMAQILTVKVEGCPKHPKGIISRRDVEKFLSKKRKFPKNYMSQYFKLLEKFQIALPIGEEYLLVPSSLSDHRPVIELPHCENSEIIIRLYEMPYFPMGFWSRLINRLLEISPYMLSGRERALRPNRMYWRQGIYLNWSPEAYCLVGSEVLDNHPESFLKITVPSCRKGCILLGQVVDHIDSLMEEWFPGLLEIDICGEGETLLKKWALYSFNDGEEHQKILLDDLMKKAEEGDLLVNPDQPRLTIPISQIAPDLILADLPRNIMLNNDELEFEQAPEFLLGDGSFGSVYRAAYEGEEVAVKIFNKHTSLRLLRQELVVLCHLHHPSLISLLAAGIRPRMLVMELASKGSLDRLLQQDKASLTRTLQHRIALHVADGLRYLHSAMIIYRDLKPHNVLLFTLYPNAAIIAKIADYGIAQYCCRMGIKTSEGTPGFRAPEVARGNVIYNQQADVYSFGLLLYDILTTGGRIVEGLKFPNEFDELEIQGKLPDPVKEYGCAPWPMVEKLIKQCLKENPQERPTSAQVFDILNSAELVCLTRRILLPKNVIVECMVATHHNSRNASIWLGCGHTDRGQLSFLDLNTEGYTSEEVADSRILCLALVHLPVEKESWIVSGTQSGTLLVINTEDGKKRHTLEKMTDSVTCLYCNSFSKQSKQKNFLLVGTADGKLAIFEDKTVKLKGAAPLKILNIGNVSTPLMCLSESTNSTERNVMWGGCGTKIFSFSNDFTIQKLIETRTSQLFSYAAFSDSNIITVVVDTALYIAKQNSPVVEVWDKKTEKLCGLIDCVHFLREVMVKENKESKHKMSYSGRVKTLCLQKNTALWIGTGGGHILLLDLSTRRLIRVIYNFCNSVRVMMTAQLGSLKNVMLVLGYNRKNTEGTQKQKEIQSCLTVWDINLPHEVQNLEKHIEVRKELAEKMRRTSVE

As for `C[C@H]1CN(c2cc3c(cn2)NC(c2c(F)cccc2F)=Nc2ccnn2-3)C[C@H](C)O1` [(2S,6S)-4-(5-(2,6-difluorophenyl)-6H-pyrazolo[1,5-a]pyrido[3,4-f][1,3,5]triazepin-9-yl)-2,6-dimethylmorpholine], the negative logarithm of the IC50 (pIC50) was greater than 7.30.

For the molecule `Fc1cccc(F)c1C1=Nc2c(Cl)cnn2-c2cc(N3C4COCC3C4)ccc2N1` [6-[3-chloro-5-(2,6-difluorophenyl)-6H-pyrazolo[1,5-a][1,3,5]benzotriazepin-9-yl]-3-oxa-6-azabicyclo[3.1.1]heptane], the pIC50 is greater than 7.30. The same measure for `OC1CCN(c2ccc3c(c2)-n2ncc(Cl)c2N=C(c2c(F)cccc2F)N3)C1` (racemic) [1-[3-chloro-5-(2,6-difluorophenyl)-6H-pyrazolo[1,5-a][1,3,5]benzotriazepin-9-yl]pyrrolidin-3-ol]: greater than 7.30; for `C[C@@H]1CN(c2ccc3c(c2)-n2ncc(Cl)c2N=C(c2c(F)cccc2F)N3)C[C@H](C)O1` [(2R,6S)-4-(3-chloro-5-(2,6-difluorophenyl)-6H-benzo[f]pyrazolo[1,5-a][1,3,5]triazepin-9-yl)-2,6-dimethylmorpholine]: 6.70 to 7.30. The same measure for `Fc1cccc(F)c1C1=Nc2c(Cl)cnn2-c2cc(N3C[C@@H]4C[C@H]3CO4)ccc2N1` [(1S,4S)-5-[3-chloro-5-(2,6-difluorophenyl)-6H-pyrazolo[1,5-a][1,3,5]benzotriazepin-9-yl]-2-oxa-5-azabicyclo[2.2.1]heptane]: greater than 7.30; for `Fc1cccc(F)c1C1=Nc2c(Cl)cnn2-c2cc(N3CC4(CC(F)C4)C3)ccc2N1` [3-chloro-5-(2,6-difluorophenyl)-9-(6-fluoro-2-azaspiro[3.3]heptan-2-yl)-6H-pyrazolo[1,5-a][1,3,5]benzotriazepine]: greater than 7.30; for `COC1CN(c2ccc3c(c2)-n2ncc(Cl)c2N=C(c2c(F)cccc2F)N3)C1` [3-chloro-5-(2,6-difluorophenyl)-9-(3-methoxyazetidin-1-yl)-6H-pyrazolo[1,5-a][1,3,5]benzotriazepine]: greater than 7.30. As for `CONC(=O)c1ccc2c(c1)-n1ncc(Cl)c1N=C(c1c(F)cccc1F)N2` [3-chloro-5-(2,6-difluorophenyl)-N-methoxy-6H-pyrazolo[1,5-a][1,3,5]benzotriazepine-9-carboxamide], the pIC50 is greater than 7.30. The value for `Fc1cccc(F)c1C1=Nc2c(Cl)cnn2-c2cc(N3CC4CC3CO4)ccc2N1` (racemic) [5-(3-chloro-5-(2,6-difluorophenyl)-6H-benzo[f]pyrazolo[1,5-a][1,3,5]triazepin-9-yl)-2-oxa-5-azabicyclo[2.2.1]heptane] was greater than 7.30.

The values are drawn from US20260347361A1, “LRRK2 INHIBITORS AND USES THEREOF” (NEURON23, INC, priority 2022, published 2026).
